# Laboratory results as given in patent publication US20120283327A1, “PHARMACEUTICAL COMPOSITIONS AND THERAPEUTIC APPLICATIONS OF A HYDROCORTISONE DERIVATIVE DESIGNATED AS DEINA” (priority 2009, published 2012).
# What was measured:
# [1] = test system: bioptic animal samples (skin, chondrocyte, mucosal and follicular vitality); assay: Optical microscopy of cultured biopsies: cytokeratin 10 and 11 expression and haematoxylin/eosin histology; format: cell-based
# Method: The bioptic animal samples in the investigation comprised biopsies of: • chronic atrophic cutaneous lesions due to venous stasis (base and margins), • damaged joint cartilage (chronic degenerative osteo-articular arthritis), • terminal cicatricial scalp (post-traumatic or surgical lesions), • hyperkeratosis of the oral cavity (vitamin B deficiency).
# All the samples were washed three times with physiological saline and antibiotics (100 units/ml of penicillin+100 μg/ml of streptomycin+160 mg/L gentamycin, fluconazole 0.2 mg/ml) for 10 minutes at ambient temperature.
# The biopsies were then sectioned into three parts (two controls, 1 and 2, and one sample, 3, to be treated for each patient) and suspended in a final volume of 25 ml of the corresponding culture solutions within 10 cm slides (Lab-Tek chamber slides, Nunc, Kamstrup, Denmark).
# Two types of controls were prepared, an untreated negative control (1), that is one treated with physiological saline and antibiotics only (as described above), and a positive control (2) treated with media for ordinary cell culture for skin biopsies.
# 2. Positive control: Controlled bioptic specimens 2 were placed between 10 cm slides (Lab-Tek chamber slides, Nunc, Kamstrup, Denmark) in D-MEM medium supplemented with:
# 3. Samples-1 and -2. Bioptic samples 1 and 2 were placed between 10 cm slides (Lab-Tek chamber slides, Nunc, Kamstrup, Denmark) in medium in a solution of Deina® culture medium (double test). […]
# Results relating to the expression of cytokeratin 10 and 11 and histological staining of the bioptic preparations with haematoxylin/eosin (used to display skin, chondrocyte, mucosal and follicular vitality) are shown in Table 6 (CONTROLS) and Table 7 (SAMPLES), and have been expressed using a qualitative and semi-quantitative scale. […]
# Samples belonging to the type of the Sample treatment group (Deina®). Median semi-quantitative values for incubation days 7 and 60.
# [2] = test system: bilateral joint changes; format: in vivo
# Method: A clinical trial to evaluate tolerance and efficacy for the compound known as infusional Deina® (composition shown in Table 3) was also performed on a compassionate basis.
# Twenty cases (dogs of different breed, size, body weight, sex and age).
# The quantity of solution inoculated was equal to the quantity of synovial fluid aspirated and analysed.
# a. Time Zero • Collection of case history and clinical examination comprising full blood counts, including LACTATES to check metabolic oxidation, • Radiography of the limb in question, • ROM (Range Of Motion), • Exploratory arthroscopy, • Exclusion of any intra-articular curettage, • Arthrocentesis with removal and morphological/cytological and biochemical examination of the synovial fluid, • Histological examination of a sample of joint cartilage, • Intra-articular inoculation of the solutions tested equal to the quantity of synovial fluid withdrawn and always in the same way (bilateral lesions): of Deina®.
# A synovial examination and intra-articular injection of the solution was repeated weekly or for four/eight times, depending on the severity of the initial pathological condition.
# b. End of the Treatment Cycle • Arthrocentesis with removal and morphological/cytological and biochemical examination of the synovial fluid, • Histological examination of a sample of joint cartilage, • Radiography of the joint in question, • ROM (Range Of Motion), • Blood lactic acid content, • Clinical examination and recording.
# [3] = Deina infusional formulation, intra-articular, weekly four/eight times, 20 dogs
smiles,measurement,setting,value
"CC1(CCC(=O)O)C(=O)CCC2C1C(O)CC1(C)C2CCC1(O)C(=O)CO (stereo not drawn) [Deina®, 3-[3,5-Dihydroxy-3-(2-hydroxy-acetyl)-3a,6-dimethyl-7-oxo-dodecahydro-cyclo-penta[alpha]naphthalen-6-yl]-propionic acid]",cytokeratin 10 and 11 (typical of normal tegument and scalp tissues with vital follicles),"[1]; optical microscopy, Table 7 summary",net predominance
same,number of cells (staining with eosin and haematoxylin),"[1]; samples treated for two months, versus controls",net increase
same,histological state of the cultured tissue,[1]; short term (7 days) up to two months of culture,"trophic, vital and active"
same,cases in which pain and palpation fell,[2]; [3],100%
same,cases with clinical improvement,[2]; [3],70%
same,cases with increased ROM (Range of Motion),[2]; [3],90%
same,tolerance,"[2]; dog, in vivo",optimum tolerance
